In a melting point compilation (Tetko et al.):
Blank lines part the entries; values can stand above or below the compound they belong to.

melting point: 120 °C
Compound: CC(C)C1OC(=O)C2CCC1(C)OC2(C)C (centres undefined)

melting point: 50.5 °C
Compound: NN(c1ccccc1)c1ccccc1

melting point: 64 to 65 °C
Compound: CCOC(=O)OC(=O)C1=CC(C)(C)N(O)C1(C)C

melting point: 122 °C
Compound: CN(C(=O)N(C)c1ccccc1)c1ccccc1

melting point: 164 to 167 °C
Compound: COc1cc(OC)c(OC)cc1/C=C/C(=O)O

melting point: 29.8 °C
Compound: CCCCCCCCCCCC=CCCCCC(=O)O

melting point: 165 to 166 °C
Compound: COc1ccc(Br)c(C(=O)NN)c1

melting point: 234 to 242 °C
Compound: Nc1ccc([N+](=O)[O-])c(C(=O)O)c1

melting point: 56 to 59 °C
Compound: Cc1cc(CO)c(-c2ccccc2)o1

melting point: 125 °C
Compound: O=C(O)c1cc(F)cc([N+](=O)[O-])c1

melting point: 289 °C
Compound: CC(C)N1CSc2nnc(-c3cccnc3)n2C1

melting point: 80 °C
Compound: COc1cc(N)ccc1Cl

melting point: 102 °C
Compound: NC(=O)COc1ccccc1

melting point: 93 to 94 °C
Compound: CC(C)CCOC(=O)C=Cc1ccc(C=CC(=O)OCCC(C)C)c([N+](=O)[O-])c1

melting point: 107 °C
Compound: Brc1cnc(N2CCCC2)nc1OCc1ccccc1

melting point: 68 °C
Compound: CC(=O)Oc1ccc(OC(C)=O)c(-c2ccccc2)c1

melting point: 203 to 205 °C
Compound: O=C(O)c1scc2c1CCCC2

melting point: 55 °C
Compound: CCN(C(C)=O)c1ccccc1

melting point: 70 °C
Compound: COC(=O)c1cccc2[nH]ccc12

melting point: 160 to 163 °C
Compound: COC(=O)c1ccc(-c2nc(C)no2)cc1

melting point: 184 to 186 °C
Compound: Clc1nc(Cl)c2nc[nH]c2n1

melting point: 273 °C
Compound: N#C/C(=N\Nc1ccc([N+](=O)[O-])cc1)c1nc2ccccc2c(=O)[nH]1

melting point: 299 °C
Compound: NC(Cc1c[nH]c2ccc(O)cc12)C(=O)O (racemic)

melting point: 169 °C
Compound: O=C(O)c1nsc(Cl)c1Cl

melting point: 85 °C
Compound: CC(=O)CC(=O)c1cccnc1

melting point: 134 °C
Compound: COC(=O)C1(C(=O)OC)Cc2cc(OC)ccc2C(=O)O1

melting point: 110 °C
Compound: CCOC(=O)CNc1nc(Cl)nc(NC(C)C)n1

melting point: 210 °C
Compound: O=C(Nc1cc(Cl)cc(Cl)c1O)c1c(O)c(Cl)cc(Cl)c1Cl

melting point: 112 to 114 °C
Compound: Cc1nc(-c2cccc(C#N)c2)cs1

melting point: 126 to 128 °C
Compound: CN(C)c1ccccc1-c1ccccc1P(c1ccccc1)c1ccccc1

melting point: 35 °C
Compound: COc1ccc(C=O)cc1F

melting point: -26.3 °C
Compound: N#CCCOCCC#N

melting point: 44 °C
Compound: Oc1ccc(Cl)c(C(F)(F)F)c1

melting point: 133 to 135 °C
Compound: O=C(Cl)c1csc(-c2ccc3c(c2)CCO3)n1

melting point: 270 to 295 °C
Compound: NC(=O)CNCCS(=O)(=O)O

melting point: 168 °C
Compound: O=C(N[C@@H](Cc1ccccc1Br)C(=O)O)OCC1c2ccccc2-c2ccccc21

melting point: 35 to 36 °C
Compound: Cc1ccc2sccc2c1

melting point: 34 to 36 °C
Compound: Cn1cc(S(=O)(=O)Cl)c(C(F)(F)F)n1

melting point: 107 to 108 °C
Compound: CC(=O)CCc1oc2c(Br)cc(Br)cc2c1-c1ccc(C)o1

melting point: 82 to 85 °C
Compound: O=C(O)C(F)c1ccccc1 (centres undefined)

melting point: 101 °C
Compound: CC12CCC(C(CC(N)=O)C1=O)C2(C)C (centres undefined)

melting point: 116 °C
Compound: CN(C)CCN1C(=O)c2ccccc2N(C)c2ccccc21

melting point: 126 to 128 °C
Compound: Clc1ncnc2c1cnn2-c1ccccc1

melting point: 140 °C
Compound: Oc1ccc(Nc2ccc3ccccc3c2)cc1

melting point: 118 to 120 °C
Compound: CC=C1CCC2C3CCC4CC(OC(C)=O)CCC4(C)C3CCC12C (centres undefined)

melting point: 82 to 83 °C
Compound: O=C1Cc2ccccc2CO1

melting point: 174 to 175 °C
Compound: O=C(O)c1ccsc1Br

melting point: 112 °C
Compound: C/C(=N/NC(N)=O)C(C)Cc1ccccc1 (centres undefined)

Further lines, the compound ahead of its results:

Compound: CCC(=O)N(C)C
melting point: -45 °C

Compound: C1CCN(SSN2CCCCC2)CC1
melting point: 64.2 °C

Compound: Clc1ccc(Cl)c(CBr)c1
melting point: 41 °C

Compound: CC[C@H]1CC[C@H](C(=O)O)CC1
melting point: 50 °C

Compound: CC(C)CCCC(C)C1CCC2C3CC=C4CC(Cl)CCC4(C)C3CCC12C (centres undefined)
melting point: 97 °C

Compound: Cc1nc2cc(Cl)ccc2o1
melting point: 54 to 57 °C

Compound: C[C@]12CC[C@H]3[C@@H](CC=C4C[C@@H](O)CC[C@@]43C)[C@@H]1CC[C@@H]2O
melting point: 178 to 182 °C

Compound: NNC(=O)CN1c2ccccc2Sc2ccccc21
melting point: 216 to 218 °C

Compound: CN(C)c1ccc(/C=C(/C#N)c2nc3ccccc3c(=O)[nH]2)cc1
melting point: 308 to 309 °C

Compound: CC(=O)OCC(=O)C1CCC2C3CCC4CC(O)CCC4(C)C3C(=O)CC12C (centres undefined)
melting point: 176 °C

Compound: NNC(=S)NCc1cccnc1
melting point: 171 to 173 °C

Compound: CN(CCCN1c2ccccc2CCc2ccccc21)CC(=O)c1ccc(Cl)cc1
melting point: 105 °C

Compound: CC12CCC3C(CCC4CC(O)(C#CCl)CCC43C)C1CCC2O (centres undefined)
melting point: 120 °C

Compound: COC(=O)c1ccc(C(C)=O)cc1
melting point: 93 to 95 °C

Compound: CC12CCC(C(O)C(C(c3ccccc3)C3C(=O)C4(C)CCC(C3O)C4(C)C)C1=O)C2(C)C (centres undefined)
melting point: 149 °C

Compound: CC(=O)Oc1c(-c2ccccc2)[nH]c2cc3c(cc12)C(=O)C(c1ccccc1)=[N+]3[O-]
melting point: 246 °C

Compound: Nc1cccc(Cn2cncn2)c1
melting point: 88 to 89 °C

Compound: CC(=O)Cc1ccccc1C(=O)OCC(=O)N(C)CCO
melting point: 70.5 °C

Compound: CC12CCC(C(O)=C(Br)C1=O)C2(C)C (centres undefined)
melting point: 188 °C

Compound: c1ccc(C2(N3CCCCC3)CCCCC2)cc1
melting point: 46.5 °C

Compound: Oc1ccc(C2CCCCC2)cc1
melting point: 133 °C

Compound: CS(=O)(=O)c1csc(C(=O)Cl)c1Cl
melting point: 181 to 185 °C

Compound: O=C(CCc1ccccc1)NNc1ccccc1
melting point: 117 °C

Compound: NC(=O)c1cccc(CCl)c1
melting point: 125 to 127 °C

Compound: O=S(=O)(CCCl)c1ccc(F)cc1
melting point: 69 °C

Compound: Cc1cc(C(=O)O)cc(Cl)c1N
melting point: 274 to 277 °C

Compound: Cc1ccc(O)c(C(O)c2ccc(Br)cc2)c1 (centres undefined)
melting point: 107 °C

Compound: OC1NN(c2ccccc2)C(O)C1=Cc1ccc2c(c1)OCO2 (centres undefined)
melting point: 290 °C

Compound: COc1ccsc1CN(C(=O)CCl)c1c(C)cccc1C
melting point: 73 °C

Compound: NC(=S)NN=C1C2CCCC1C1(O)CCCCC1C2c1ccccc1 (centres undefined)
melting point: 205 °C

Compound: CC1CCCCC1C (centres undefined)
melting point: -49.9 °C

Compound: N#CCN=C(c1ccccc1)c1ccccc1
melting point: 83 to 86 °C

Compound: Nc1cccc2nsnc12
melting point: 68 °C

Compound: O=[N+]([O-])c1ccccc1C(Br)C(Br)c1ccccn1 (centres undefined)
melting point: 182 °C

Compound: Cc1c(C)c(C)c2c(=O)n3ccccc3cc2c1C
melting point: 221 °C

Compound: CC(C)(C)NCC(O)COc1ccccc1C1CCCC1 (centres undefined)
melting point: 68 °C

Compound: Fc1cccc(P(c2cccc(F)c2)c2cccc(F)c2)c1
melting point: 61.5 °C

Compound: COC(=O)c1ccccc1S(=O)(=O)NC(=O)N(C)c1nc(C)nc(OC)n1
melting point: 142 °C

Compound: CC12CCC3C(CCC4=CC(=O)CCC43C)C1CCC2=O (centres undefined)
melting point: 170 to 171 °C

Compound: c1cc(-c2csnn2)ccc1OCC1CO1 (centres undefined)
melting point: 70 to 72 °C

Compound: CC(=O)c1sc2ccccc2c1C
melting point: 78 °C

Compound: Cc1noc(C)c1CO
melting point: 76 to 77 °C

Compound: NCCS(=O)(=O)O
melting point: 328 °C

Compound: O=C(O)C1CC(=O)N(CCc2ccc(Cl)cc2)C1 (centres undefined)
melting point: 148 to 150 °C

Compound: Nc1c(Cl)c(Cl)nc(Cl)c1Cl
melting point: 212 to 215 °C

Compound: O=C(O)CN1CSC(=S)N(Cc2ccccc2)C1
melting point: 152 °C

Compound: CC(=O)Cc1c[nH]c2ccccc12
melting point: 116 °C

Compound: COc1cc(N=C=S)c(C(c2ccc(C)o2)c2ccc(C)o2)cc1OC
melting point: 91 °C

Compound: COC1=C(OC)C(C(CBr)OC(C)=O)OC1=O (centres undefined)
melting point: 74 °C

Compound: CC(C)=C1C2CCC1c1ccccc12
melting point: 90 °C

Compound: CNC(=O)ON=C(C)C(C)SC (centres undefined)
melting point: 37 °C

Compound: CC1(C)C(C(=O)OC(C#N)c2cccc(Oc3ccccc3)c2)C1(C)C (centres undefined)
melting point: 47.5 °C

Compound: O=[N+]([O-])c1cccc(-c2nnc3n2NC(/C=C/c2ccccc2)S3)c1 (centres undefined)
melting point: 190 to 192 °C

Compound: Cc1nc(-c2ccccn2)nc(O)c1Cl
melting point: 142 to 144 °C

Compound: O=[N+]([O-])c1ccc(-c2nnc3n2NCS3)cc1
melting point: 218 °C

Compound: CSC(SC)=C1CCCC(=C(SC)SC)C1=C(C#N)C#N
melting point: 155 to 156 °C

Compound: O=C(O)c1cccc2c1C(=O)c1ccccc1-2
melting point: 194 to 198 °C

Compound: COc1ccc(NC(=O)/C(C)=N\NC(N)=O)cc1
melting point: 226 to 228 °C

Compound: C=CC(=O)OCCN(CC)CC
melting point: -60 °C

Compound: O=C1C=CC(=O)c2c(O)cccc21
melting point: 162 °C

Compound: COc1ccc(C=CC#N)c(Cl)c1OC
melting point: 107 to 110 °C

Compound: Cc1ccc(OCC(=O)O)cc1C
melting point: 163 °C

Compound: CCOC(=O)C(C#N)=C(SC)SC
melting point: 70 °C

Compound: Cc1ccc([N+](=O)[O-])cc1O
melting point: 118 °C

Compound: CN1CCC23c4c5ccc(OCc6ccccc6)c4OC2C(O)C=CC3C1C5 (centres undefined)
melting point: 132 °C

Compound: CC(=O)OC1CCC2(C)C(=CCC3C2CCC2(C)C3CCC2C2(CBr)OCCO2)C1 (centres undefined)
melting point: 170 to 172 °C

Compound: Cc1cc(I)cnc1NC(=O)C(C)(C)C
melting point: 143 °C

Compound: CC(C)CC=CC(C(=O)O)C1=CCC2(C)C(CCC3C4CCC(O)C4(C)CCC32)C1 (centres undefined)
melting point: 200 °C

Compound: NNC(=O)c1cccc2cc[nH]c12
melting point: 178 °C

Compound: c1ccc(OCc2ccc(CCCN3CCOCC3)cc2)cc1
melting point: 52.5 °C

Compound: C(=Nc1ccccc1)c1ccccc1
melting point: 54 °C

Compound: CCOC(=O)c1cc2c(=O)oc3ccccc3c2nc1N
melting point: 192 °C

Compound: Cc1c(C(=O)O)cc(-c2ccccc2)n1-c1ccccc1
melting point: 226 to 227 °C

Compound: CCOC(=O)C1=C2c3ncccc3ON2C(Cl)C(Cl)C1Cl (centres undefined)
melting point: 105 °C

Compound: O=C(O)c1cccc2c1OCCCO2
melting point: 68 to 70 °C

Compound: NC(=O)C[C@H](NC(=O)OCc1ccccc1)C(=O)O
melting point: 160 to 165 °C

Compound: O=C(C(=S)N1CCOCC1)c1ccccc1
melting point: 75 °C

Compound: Cc1cc(Cl)cc(Cl)c1
melting point: 26 °C

Compound: CCc1cccc2c3c([nH]c12)C(CC)(CC(=O)O)OCC3 (centres undefined)
melting point: 146 °C

Compound: COc1cc2c(cc1O)C(Cc1ccc(OC)c(OC)c1)N(C)CC2 (centres undefined)
melting point: 127 °C

Compound: CCCc1ccc(OCC(=O)N2CCN(C(=O)COc3ccc(CCC)cc3OC)CC2)c(OC)c1
melting point: 128 °C
